Assay results taken from patent US11992473B2, “Compositions and methods for diagnosis and treatment of conditions related to the quality of aging and longevity” (Epitracker, Inc., priority 2018, dated 2024).

Experiments:
Type in all cases: cell-based, human
[1] = test system: Peripheral blood mononuclear cells, B cells; test: BioMAP Diversity PLUS BT system (T cell dependent B cell activation)
Method: (§1) This study examined activities of small molecules discovered in dolphin serum that had protective profiles against diseases of aging which can impact quality of life and longevity. These molecules were tested across 12 human primary cell-based systems as part of DiscoverX's BioMAP Diversity Plus program. These systems are designed to model complex human tissue and disease biology of the vasculature, skin, lung, and inflammatory tissues. Quantitative measurements of biomarker activities across this broad panel, along with comparative analysis of biological activities of known bioactive agents were used to predict and compare the efficacy and function of the four compounds. Compounds were tested at four concentrations (740 nm and 2.2, 6.7 and 20 μM).
(§2) BioMAP panels consist of human primary cell-based systems designed to model different aspects of the human body in an in vitro format. The 12 systems in the Diversity PLUS panel allow test agent characterization in an unbiased way across a broad set of systems modeling various human disease states. BioMAP systems are constructed with one or more primary cell types from healthy human donors, with stimuli (such as cytokines or growth factors) added to capture relevant signaling networks that naturally occur in human tissue or pathological conditions. Vascular biology is modeled in both a Th1 (3C system) and a Th2 (4H system) inflammatory environment, as well as in a Th1 inflammatory state specific to arterial smooth muscle cells (CASM3C system). Additional systems recapitulate aspects of the systemic immune response including monocyte-driven Th1 inflammation (LPS system) or T cell stimulation (SAg system), chronic Th1 inflammation driven by macrophage activation (lMphg system) and the T cell-dependent activation of B cells that occurs in germinal centers (BT system). The BE3C system (Th1) and the BF4T system (Th2) represent airway inflammation of the lung, while the MyoF system models myofibroblast-lung tissue remodeling. Lastly, skin biology is addressed in the KF3CT system modeling Th1 cutaneous inflammation and the HDF3CGF system modeling wound healing.
(§3) Each test agent generates a signature BioMAP profile that is created from the changes in protein biomarker readouts within individual system environments. Biomarker readouts (7-17 per system) are selected for therapeutic and biological relevance, are predictive for disease outcomes or specific drug effects and are validated using agents with known mechanism of action (MoA). Each readout is measured quantitatively by immune-based methods that detect protein (e.g., ELISA) or functional assays that measure proliferation and viability. BioMAP readouts are diverse and include cell surface receptors, cytokines, chemokines, matrix molecules and enzymes.
(§4) The Diversity PLUS panel allows test agent characterization in an unbiased way across a broad set of systems modeling various human disease states. These systems are designed to model complex human tissue and disease biology of the vasculature, skin, lung, and inflammatory tissues.
(§5) BioMAP systems are constructed with one or more primary cell types from healthy human donors, with stimuli (such as cytokines or growth factors) added to capture relevant signaling networks that naturally occur in human tissue or pathological conditions. Vascular biology is modeled in both a Th1 (3C system) and a Th2 (4H system) inflammatory environment, as well as in a Th1 inflammatory state specific to arterial smooth muscle cells (CASM3C system). Additional systems recapitulate aspects of the systemic immune response including monocyte-driven Th1 inflammation (LPS system) or T cell stimulation (SAg system), chronic Th1 inflammation driven by macrophage activation (lMphg system) and the T cell-dependent activation of B cells that occurs in germinal centers (BT system).

[2] = test system: Venular endothelial cells, peripheral blood mononuclear cells; test: BioMAP Diversity PLUS LPS system (Th1 type chronic inflammation, monocyte activation); details: human cell system mimicking T-cell and monocyte driven chronic inflammation and cardiovascular diseases (FIG. 4)
Method: as §1, §2, §3, §4, §5

[3] = test system: Venular endothelial cells, peripheral blood mononuclear cells; test: BioMAP Diversity PLUS SAg system (T cell stimulation, Th1 type chronic inflammation); details: for Significant log10 reduction compared to nontreated controls: T cell proliferation / Significant log10 reduction compared to nontreated controls: Monocyte chemoattractant protein 1 (MCP-1): SAg system; for T cell proliferation: concentrations ranging from 740 nm to 6.7 μM (FIG. 2)
Method: as §1, §2
as §3, with “enzymes. In total, the Diversity PLUS panel contains 148 biomarker readouts that capture biological changes that occur within the physiological context of the particular BioMAP system. Specific BioMAP activities have been correlated to in vivo biology, and multiparameter BioMAP profiles have been used to distinguish compounds based on MoA and target selectivity across diverse physiological systems.” for “enzymes.”
(§6) The Diversity PLUS panel allows test agent characterization in an unbiased way across a broad set of systems modeling various human disease states. These systems are designed to model complex human tissue and disease biology of the vasculature, skin, lung, and inflammatory tissues. Quantitative measurements of 148 biomarker activities across this broad panel, along with comparative analysis of biological activities from known bioactive agents, were used to predict and compare the efficacy and function of each selected compound at four concentrations (740 nm and 2.2, 6.7 and 20 μM). […]

Dermal fibroblasts = test: BioMAP Diversity PLUS HDF3CGF system (wound healing and matrix/tissue remodeling)
Method: as §1, §2, §3, §4, §5

Lung fibroblasts = test: BioMAP Diversity PLUS MyoF system (myofibroblast differentiation and tissue remodeling)
Method: as §1, §2
as §3, with “enzymes. In total, the Diversity PLUS panel contains 148 biomarker readouts that capture biological changes that occur within the physiological context of the particular BioMAP system. Specific BioMAP activities have been correlated to in vivo biology, and multiparameter BioMAP profiles have been used to distinguish compounds based on MoA and target selectivity across diverse physiological systems.” for “enzymes.”
as §6

[4] = test system: Macrophages, venular endothelial cells; test: BioMAP Diversity PLUS lMphg system (Th1 type chronic inflammation, macrophage activation); details: /Mphg system; 2.2 μM
Method: as §1, §2
as §3, with “enzymes. In total, the Diversity PLUS panel contains 148 biomarker readouts that capture biological changes that occur within the physiological context of the particular BioMAP system. Specific BioMAP activities have been correlated to in vivo biology, and multiparameter BioMAP profiles have been used to distinguish compounds based on MoA and target selectivity across diverse physiological systems.” for “enzymes.”
as §6

[5] = human cell system mimicking T-cell driven chronic inflammation and autoimmune diseases

## CCCCCCC=CCCCCCCCCC(=O)O [Compound 10-heptadecanoate]
[1]; BT system, 6.7 μM
  Significant log10 reduction compared to nontreated controls: Secreted interleukin 2 (IL-2): −0.11 log10

## N[C@@H](CCC(=O)NCC(=O)O)C(=O)O [Gamma-glutamylglycine]
[2]
  secretion of prostaglandin E2 (PGE2): lowered
[3]; 6.7 μM
  Significant log10 reduction compared to nontreated controls: T cell proliferation: −0.11 log10
[3]; 20.0 μM
  Significant log10 reduction compared to nontreated controls: T cell proliferation: −0.07 log10
[3]; human cell system mimicking T-cell driven chronic inflammation and autoimmune diseases, 740 nm, 2.2 μM, and 6.7 μM (FIG. 3)
  CD40: lowered
[3]; [5]
  T cell proliferation: decreased
[1]; BT system, 0.7 μM
  Significant log10 reduction compared to nontreated controls: Secreted interleukin 17A: −0.17 log10
[1]; BT system, 2.2 μM
  Significant log10 reduction compared to nontreated controls: Secreted interleukin 17A (IL-17A): −0.17 log10
[1]; human cell system mimicking asthma, autoimmunity and allergies (FIG. 5)
  interleukin 17A (IL-17A): lowered
Dermal fibroblasts; human cell system mimicking wound healing, remodeling, fibrosis and chronic inflammation (FIG. 7)
  decorin: inhibitory activity

## NC(=O)NCCCC[C@H](N)C(=O)O [Homocitrulline]
[2]
  secretion of prostaglandin E2 (PGE2): lowered
[3]; [5]
  T cell proliferation: decreased
Dermal fibroblasts; human cell system mimicking wound healing, remodeling, fibrosis and chronic inflammation (FIG. 8)
  interleukin 8 (IL-8): inhibitory activity

## CC(=O)NCCc1c[nH]cn1 [N-acetylhistamine]
[1]; BT system, 2.2 μM
  Significant log10 reduction compared to nontreated controls: B cell proliferation: −0.12 log10
[1]; BT system, 6.7 μM
  Significant log10 reduction compared to nontreated controls: B cell proliferation: −0.06 log10
[1]; BT system, 20.0 μM
  Significant log10 reduction compared to nontreated controls: B cell proliferation: −0.08 log10
  Significant log10 reduction compared to nontreated controls: Secreted interleukin 17A (IL-17A): −0.19 log10
  Significant log10 reduction compared to nontreated controls: Secreted interleukin 17F (IL-17F): −0.42 log10
Dermal fibroblasts; HDF3CGF system, 6.7 μM
  Significant log10 reduction compared to nontreated controls: Vascular cell adhesion molecule 1 (VCAM-1): −0.08 log10
Dermal fibroblasts; HDF3CGF system, 20.0 μM
  Significant log10 reduction compared to nontreated controls: Collagen III: −0.13 log10
  Significant log10 reduction compared to nontreated controls: Vascular cell adhesion molecule 1 (VCAM-1): −0.15 log10
Lung fibroblasts; 0.7 μM
  Significant log10 reduction compared to nontreated controls: Alpha smooth muscle actin (αSMA): −0.05 log10
Lung fibroblasts; 2.2 μM
  Significant log10 reduction compared to nontreated controls: Alpha smooth muscle actin (αSMA): −0.06 log10
Lung fibroblasts; 6.7 μM
  Significant log10 reduction compared to nontreated controls: Alpha smooth muscle actin (αSMA): −0.11 log10
Lung fibroblasts; 20.0 μM
  Significant log10 reduction compared to nontreated controls: Alpha smooth muscle actin (αSMA): −0.09 log10
[4]
  Significant log10 reduction compared to nontreated controls: Monocyte chemoattractant protein 1 (MCP-1): −0.26 log10

## CCCCCCCCCCCCCCC(=O)O [Pentadecanoate (C15:0), pentadecanoate]
[3]; 6.7 μM
  Significant log10 reduction compared to nontreated controls: Monocyte chemoattractant protein 1 (MCP-1): −0.18 log10
[3]; 20.0 μM
  Significant log10 reduction compared to nontreated controls: Monocyte chemoattractant protein 1 (MCP-1): −0.15 log10
[1]; BT system, 2.2 μM
  Significant log10 reduction compared to nontreated controls: Secreted interleukin 17A (IL-17A): −0.25 log10
  Significant log10 reduction compared to nontreated controls: Secreted interleukin 17F (IL-17F): −0.16 log10
[1]; BT system, 6.7 μM
  Significant log10 reduction compared to nontreated controls: Secreted immunoglobulin G (IgG): −0.17 log10
[1]; BT system, 20.0 μM
  Significant log10 reduction compared to nontreated controls: Secreted immunoglobulin G (IgG): −0.55 log10
  Significant log10 reduction compared to nontreated controls: Secreted interleukin 6 (IL-6): −0.29 log10
  Significant log10 reduction compared to nontreated controls: Secreted interleukin 17A (IL-17A): −0.29 log10
  Significant log10 reduction compared to nontreated controls: Secreted interleukin 17F (IL-17F): −0.18 log10
Dermal fibroblasts; HDF3CGF system, 6.7 μM
  Significant log10 reduction compared to nontreated controls: 72-hour fibroblast proliferation: −0.67 log10
  Significant log10 reduction compared to nontreated controls: Collagen I: −0.07 log10
  Significant log10 reduction compared to nontreated controls: Plasminogen activation inhibitor 1 (PAI-1): −0.08 log10
Dermal fibroblasts; HDF3CGF system, 20.0 μM
  Significant log10 reduction compared to nontreated controls: 72-hour fibroblast proliferation: −1.1 log10
  Significant log10 reduction compared to nontreated controls: Collagen I: −0.13 log10
  Significant log10 reduction compared to nontreated controls: Collagen III: −0.13 log10
  Significant log10 reduction compared to nontreated controls: Interferon gamma-induced protein 10 (IP-10)/CXCL10: −0.14 log10
  Significant log10 reduction compared to nontreated controls: Interferon-inducible T cell alpha chemoattractant (I-TAC)/CXCL11: −0.17 log10
  Significant log10 reduction compared to nontreated controls: Monokine induced by gamma interferon (MIG)/CXCL9: −0.10 log10
  Significant log10 reduction compared to nontreated controls: Plasminogen activation inhibitor 1 (PAI-1): −0.13 log10
  Significant log10 reduction compared to nontreated controls: Vascular cell adhesion molecule 1 (VCAM-1): −0.28 log10
